In article PMC6212778, “Site-specific amino acid substitution in dodecameric peptides determines the stability and unfolding of c-MYC quadruplex promoting apoptosis in cancer cells” (Nucleic Acids Research, 2018):
Entries after “also recorded” stand apart in the source; their conditions may differ.

Tests used:
[1] = test system: native c-MYC quadruplex (Pu27); test: ITC of peptides with native c-MYC quadruplex Pu27 in potassium phosphate buffer; type: binding, human; details: for K A / Kd / ΔG (binding energy) / ΔH (binding enthalpy) / ΔS (entropy): 25°C, 20 μM peptide in cell, 500 μM Pu27 in syringe, 10 mM potassium phosphate, 0.1 M KCl, pH 7.0, one-site model
Procedure: The putative wild-type and truncated G-quadruplex forming sequences (Table 2 and Supplementary Table S1), located at the upstream of c-MYC promoter are reconstituted in 10 mM Potassium Phosphate buffer (pH 7.0) having 100 mM potassium chloride (KCl). The sequences are allowed to evolve G-quadruplex structure in solution by annealing at 95°C followed by gradual cooling. (Supplementary information Section 1).
Thermodynamic attributes of the interaction profiles between peptides and putative quadruplex sequences are analysed by ITC using iTC200 Microcalorimeter at 25°C. Synthetic peptides (FK13, KR12A, KR12B, KR12C, KR12D and KR12E) are diluted to 20 μM in 10 mM Potassium phosphate buffer (10 mM K2HPO4 + 10 mM KH2PO4) containing 0.1 M KCl (pH 7.0). Syringe is filled with 500 μM quadruplex sequences present in the upstream promoter regions of c-MYC (Pu27, Pu19, and Myc22), BCL-2 (Pu30), VEGF-A (Pu22), KRAS (Pu32) oncogenes, and telomere (Tel26) dissolved into the same buffer. We also carried out the experiment for KR12C and Pu27 using MCF-7 nuclear extract as the solvent to mimic the cellular microenvironment and impart macromolecular crowding during binding events. Same concentration of oligonucleotides is injected into the identical buffer or in nuclear extract without peptides to normalize the heat of dilution of peptide-quadruplex association to that of the control before curve-fitting. Oligonucleotides are injected 20 times at an interval of 150 s into the calorimeter cell having the peptides to achieve binding saturation. The heat of reaction per injection (μcal/s) is determined by integration of the peak areas using in-built Origin 7.0 software that provides the best-fit values of enthalpy (ΔH) and entropy (ΔS) of binding, the binding stoichiometry (n), and dissociation constant (Kd) (Supplementary Tables S5(a), S5(b) and S5(c)). Data points are further simulated with ‘one-site’ binding modes (Supplementary information Section 1).

[2] = test system: c-MYC transcripts in MCF-7 cells; test: Real time PCR of c-MYC transcripts; type: cell-based, human; details: MCF-7, 24 h, qPCR normalised to GAPDH
Procedure: To inspect the transcription inhibitory roles of peptides in c-MYC, BCL-2, VEGF-A and KRAS oncogenes having putative quadruplexes in their promoters, we performed real time polymerase chain reactions. MCF-7 cells are sub-cultured into 6-well microtiter plates at a density of 1 × 10^6 cells per well and treated with different concentrations of peptides (FK13, KR12A, KR12B and KR12C) for 24 hours. Total RNA is isolated from both untreated and treated cells using TRIzol method (Invitrogen) as per manufacturer's instructions. 2 μg of total RNA is processed for cDNA synthesis and reverse transcribed using a Super MuLV RT Kit (Biobharati Life Sciences Pvt. Ltd.). Real time PCR is performed using Maxima SYBR Green/ROX qPCR Master Mix (2×) (Thermo-Scientific) as per manufacturer's protocol. Housekeeping gene, GAPDH is used as an internal control to normalize the variability in c-MYC mRNA expression levels (Supplementary information Section 1). PCR primers are designed using Primer-BLAST, NCBI, and analyzed in OligoAnalyser 3.1-IDT (Supplementary Table S2).

[3] = test system: c-MYC promoter (Pu27-GQ) in MCF-7 cells; test: Dual-luciferase assay, c-MYC promoter with Pu27-GQ; type: cell-based, human; details: for c-MYC promoter activity, fold repression: MCF-7, 24 h peptide treatment, 60 μM, Renilla/firefly normalised; for c-MYC promoter activity: MCF-7, 24 h, peptide 0–60 μM
Procedure: (§1) MCF-7 cells are sub-cultured into 24-well microtiter plates at a cell density of 1 × 10^5 cells/well. Reporter constructs (c-MYC, BCL-2, KRAS and VEGF-A) (500 ng) with and/or without the G-quadruplex scaffolds triggering the expression of Renilla luciferase are co-transfected with 50 ng of pGL3-control vectors (Promega) (used as internal control), encoding firefly luciferase into MCF-7 cells using Lipofectamine® 3000 transfection reagent (Thermo-Fisher Scientific) following manufacturer's recommendations (Supplementary information Section 1). Twenty four hours post-transfection, cells are treated with peptides (FK13, KR12A, KR12B, KR12C, KR12D and KR12E) at an increasing concentration gradient.
(§2) Dual-luciferase assays are performed to examine the intracellular selectivity of peptides for c-MYC quadruplex isomers (Pu27, Myc22 and Pu19) over other oncogenic quadruplexes (BCL-2, VEGF-A and KRAS) of different topologies. The role of peptide-quadruplex complex in oncogene promoter activation is investigated in contrast to the GQ-null promoter constructs into MCF-7 cells ([67]). After 24 h of peptide treatment, cells are washed and lysed into 100 μl 1× Passive lysis buffer (PLB) for 15 min at room temperature. Renilla and firefly Luciferase activities in 25 μl lysate are quantified by Dual-Luciferase® reporter assay system (Promega) as per manufacturer's recommendations. Renilla luciferase enzyme activity is normalized to that of the firefly luciferase activity and luminescence of the peptide-treated samples are normalized to the untreated ones, which yield the fold induction values for Renilla activities by different quadruplex structures in presence and absence of synthetic peptides. Luminescence of each sample is detected in GloMax® 20/20 Single-Tube Luminometer (Promega) in triplicates and averaged from three independent experiments.

[4] = test system: VEGF-A promoter (VEGF-A-GQ) in MCF-7 cells; test: Dual-luciferase assay, VEGF-A promoter with VEGF-A-GQ; type: cell-based, human; details: MCF-7, 24 h, peptide 0–60 μM
Procedure: as §1, §2

[5] = test system: c-MYC promoter with Myc22 isomer in MCF-7 cells; test: Dual-luciferase assay, c-MYC promoter under control of Myc22; type: cell-based, human; details: MCF-7, 24 h peptide treatment
Procedure: as §1, §2

[6] = test system: c-MYC quadruplex Pu27; test: CD melting of free and peptide-bound Pu27; type: binding, human
Procedure: To understand the role of peptides (FK13, KR12A, KR12B, KR12C, KR12D and KR12E) in stabilizing native and truncated isomers of c-MYC G-quadruplex, we have performed temperature-driven CD melting experiments for free and peptide-bound complexes in JASCO-J815 CD spectrometer. We have gradually titrated the peptides into 10 μM of putative quadruplexes and acquired the spectra after 5 min of peptide addition to allow complex formation and equilibration. Samples are heated from 20 to 95°C having the temperature gradient and the delay time of 2.5°C/min and 150 s respectively. Since the quadruplexes unfold at higher temperatures and revert back to their initial conformations upon renaturation, we have assumed a ‘two-state transition’ model (folded and unfolded) to analyze the melting curves and estimated the melting temperatures (Tm) by fitting the data points into sigmoidal curves (Supplementary information Section 1).

[7] = test system: KRAS promoter (KRAS-GQ) in MCF-7 cells; test: Dual-luciferase assay, KRAS promoter with KRAS-GQ; type: cell-based, human; details: MCF-7, 24 h; for KRAS promoter activity: peptide 0–60 μM
Procedure: as §1, §2

[8] = potassium phosphate buffer pH 7.0
[9] = 10 μM quadruplex, two-state model

Substance: N – FKRIVQRIKDFLR – C [FK13]
- K A [1]: 28900 M⁻¹
- Kd [1]: 34.6 µM
- ΔG (binding energy) [1]: -5.982 kcal/mol
- ΔH (binding enthalpy) [1]: -77.8 kcal/mol
- ΔS (entropy) [1]: −241 cal/mol/deg
- c-MYC transcription [2]: did not downregulate c-MYC transcription
- c-MYC promoter activity, fold repression [3]: ~2 fold
- VEGF-A promoter activity [4]: significantly downregulate; also recorded: strongly inhibited
- c-MYC promoter activation under control of Myc22 [5]: attenuated

Substance: N – KRIVKLIKKWLR – C [KR12C]
- K A [1]: 124000 M⁻¹
- Kd [1]: 8.06 µM
- ΔG (binding energy) [1]: -6.974 kcal/mol
- ΔH (binding enthalpy) [1]: -47.8 kcal/mol
- ΔS (entropy) [1]: −137 cal/mol/deg
- fold higher binding ΔH for Pu27 association compared to KR12B and KR12D [1, 8]: ~2 fold
- times higher affinity for Pu27 compared to KR12B and KR12D [1, 8]: ~5 times
- c-MYC transcription, fold repression [2]: ~5 fold
- c-MYC promoter activity [3]: selectively attenuated
- VEGF-A promoter activity [4]: no significant impact
- rise in the Tm of Pu27 upon peptide binding [6, 9]: 9 °C
- c-MYC promoter attrition in presence of Myc22, fold [5]: ~5 fold
- KRAS promoter activity [7]: no significant impact

Substance: N – KRIVKRIKKWLR – C [KR12B, dodecameric mutant peptide derived from FK13 / LL37]
- K A [1]: 26800 M⁻¹
- Kd [1]: 37.3 µM
- ΔG (binding energy) [1]: -6.18 kcal/mol
- ΔH (binding enthalpy) [1]: -137.3 kcal/mol
- ΔS (entropy) [1]: −440 cal/mol/deg
- c-MYC transcription, fold repression [2]: ~5 fold
- c-MYC promoter activity [3]: selectively attenuated
- VEGF-A promoter activity [4]: strongly inhibited
- effect on thermal stability of Pu27 [6]: did not significantly induce thermal stability
- KRAS promoter activity [7]: inverse regulation

Substance: N – KRIVQRIKKWLR – C [KR12A, dodecameric mutant peptide derived from FK13 / LL37]
- K A [1]: 16200 M⁻¹
- Kd [1]: 61.7 µM
- ΔG (binding energy) [1]: -6.44 kcal/mol
- ΔH (binding enthalpy) [1]: -72 kcal/mol
- ΔS (entropy) [1]: −220 cal/mol/deg
- c-MYC transcription [2]: downregulated c-MYC transcription in a dose-dependent manner
- c-MYC promoter activity, fold repression [3]: ~2 fold
- VEGF-A promoter activity [4]: significantly downregulate
- decrease of the Tm of Pu27 upon peptide binding [6, 9]: ~30 °C
- c-MYC promoter activation under control of Myc22 [5]: attenuated
- KRAS promoter activity, fold inhibition ([7]; at higher concentration): ~2.5 fold
